“And” between values parts separate entries of the source, which are not always exact repeats. Identical values can stand only once. Like-named read-outs stand apart in the source and are kept apart here.
Assays:
[1] = system: human breast MDA-MB-361 tumor cell line; assay: In vitro cell culture growth assay (MTS), MDA-MB-361; assay type: cell-based; conditions: read-out: IC50 MDA-MB-361
[2] = system: human prostate PC3-mm2 tumor cell line; assay: In vitro cell culture growth assay (MTS), PC3-mm2; assay type: cell-based; conditions: read-out: IC50 PC3-mm2
PI3K-α = PI3K-α (Homo sapiens, UniProt P42336); assay: PI3K-alpha fluorescence polarization assay; conditions: read-out: IC50 PI3Kα
Chain of PI3K-α (P42336 whole entry, species assumed): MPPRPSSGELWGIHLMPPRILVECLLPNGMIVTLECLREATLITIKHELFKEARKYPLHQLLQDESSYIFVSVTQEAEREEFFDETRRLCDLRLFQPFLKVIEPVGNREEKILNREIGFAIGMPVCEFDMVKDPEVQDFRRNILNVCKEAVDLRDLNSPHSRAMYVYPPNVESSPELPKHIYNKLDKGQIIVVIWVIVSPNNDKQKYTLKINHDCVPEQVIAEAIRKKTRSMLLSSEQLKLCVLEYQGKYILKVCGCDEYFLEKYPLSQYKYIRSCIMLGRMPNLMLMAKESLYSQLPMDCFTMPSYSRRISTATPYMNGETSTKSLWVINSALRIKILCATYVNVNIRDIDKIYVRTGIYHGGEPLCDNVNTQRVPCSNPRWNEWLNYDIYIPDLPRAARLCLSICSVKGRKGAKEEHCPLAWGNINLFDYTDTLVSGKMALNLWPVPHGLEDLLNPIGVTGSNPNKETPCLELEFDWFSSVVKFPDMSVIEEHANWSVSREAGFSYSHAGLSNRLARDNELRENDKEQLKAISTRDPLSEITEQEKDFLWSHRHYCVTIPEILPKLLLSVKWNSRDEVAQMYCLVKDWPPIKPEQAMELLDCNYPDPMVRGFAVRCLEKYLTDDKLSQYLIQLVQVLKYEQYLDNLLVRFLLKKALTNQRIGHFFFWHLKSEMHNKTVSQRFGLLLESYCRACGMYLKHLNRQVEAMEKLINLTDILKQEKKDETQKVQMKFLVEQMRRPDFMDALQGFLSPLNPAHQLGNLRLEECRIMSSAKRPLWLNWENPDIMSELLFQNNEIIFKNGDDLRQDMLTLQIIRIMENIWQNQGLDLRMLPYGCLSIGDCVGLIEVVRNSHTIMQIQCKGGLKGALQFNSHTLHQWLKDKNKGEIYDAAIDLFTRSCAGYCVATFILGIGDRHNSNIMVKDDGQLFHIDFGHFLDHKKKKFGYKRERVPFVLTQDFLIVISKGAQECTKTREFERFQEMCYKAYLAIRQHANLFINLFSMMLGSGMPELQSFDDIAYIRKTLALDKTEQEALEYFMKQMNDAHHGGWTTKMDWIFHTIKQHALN
Chain of PI3K-α (P27986 whole entry partner, species assumed): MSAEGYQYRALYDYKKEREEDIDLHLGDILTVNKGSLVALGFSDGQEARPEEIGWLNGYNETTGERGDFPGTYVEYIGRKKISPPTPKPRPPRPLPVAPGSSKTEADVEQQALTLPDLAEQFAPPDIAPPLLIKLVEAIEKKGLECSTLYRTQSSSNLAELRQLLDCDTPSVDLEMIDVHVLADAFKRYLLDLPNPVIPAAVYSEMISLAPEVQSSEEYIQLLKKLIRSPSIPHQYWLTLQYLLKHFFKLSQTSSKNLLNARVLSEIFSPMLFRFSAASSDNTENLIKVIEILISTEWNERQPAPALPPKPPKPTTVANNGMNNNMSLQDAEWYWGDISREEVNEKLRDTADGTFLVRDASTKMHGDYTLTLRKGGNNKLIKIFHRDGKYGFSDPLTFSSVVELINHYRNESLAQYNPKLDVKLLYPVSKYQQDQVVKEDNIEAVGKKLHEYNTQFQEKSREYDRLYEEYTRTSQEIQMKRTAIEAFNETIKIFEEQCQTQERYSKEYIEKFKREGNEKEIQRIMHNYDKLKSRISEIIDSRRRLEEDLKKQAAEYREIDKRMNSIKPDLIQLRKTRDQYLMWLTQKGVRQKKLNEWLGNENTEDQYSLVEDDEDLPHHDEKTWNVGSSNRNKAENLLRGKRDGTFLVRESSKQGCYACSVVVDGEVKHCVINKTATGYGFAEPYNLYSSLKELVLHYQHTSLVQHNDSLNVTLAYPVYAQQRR

PI3K-γ = PI3K-γ (Homo sapiens, UniProt P48736); assay: PI3K-gamma fluorescence polarization assay; conditions: read-out: IC50 PI3Kγ
Chain of PI3K-γ (P48736 whole entry, species assumed): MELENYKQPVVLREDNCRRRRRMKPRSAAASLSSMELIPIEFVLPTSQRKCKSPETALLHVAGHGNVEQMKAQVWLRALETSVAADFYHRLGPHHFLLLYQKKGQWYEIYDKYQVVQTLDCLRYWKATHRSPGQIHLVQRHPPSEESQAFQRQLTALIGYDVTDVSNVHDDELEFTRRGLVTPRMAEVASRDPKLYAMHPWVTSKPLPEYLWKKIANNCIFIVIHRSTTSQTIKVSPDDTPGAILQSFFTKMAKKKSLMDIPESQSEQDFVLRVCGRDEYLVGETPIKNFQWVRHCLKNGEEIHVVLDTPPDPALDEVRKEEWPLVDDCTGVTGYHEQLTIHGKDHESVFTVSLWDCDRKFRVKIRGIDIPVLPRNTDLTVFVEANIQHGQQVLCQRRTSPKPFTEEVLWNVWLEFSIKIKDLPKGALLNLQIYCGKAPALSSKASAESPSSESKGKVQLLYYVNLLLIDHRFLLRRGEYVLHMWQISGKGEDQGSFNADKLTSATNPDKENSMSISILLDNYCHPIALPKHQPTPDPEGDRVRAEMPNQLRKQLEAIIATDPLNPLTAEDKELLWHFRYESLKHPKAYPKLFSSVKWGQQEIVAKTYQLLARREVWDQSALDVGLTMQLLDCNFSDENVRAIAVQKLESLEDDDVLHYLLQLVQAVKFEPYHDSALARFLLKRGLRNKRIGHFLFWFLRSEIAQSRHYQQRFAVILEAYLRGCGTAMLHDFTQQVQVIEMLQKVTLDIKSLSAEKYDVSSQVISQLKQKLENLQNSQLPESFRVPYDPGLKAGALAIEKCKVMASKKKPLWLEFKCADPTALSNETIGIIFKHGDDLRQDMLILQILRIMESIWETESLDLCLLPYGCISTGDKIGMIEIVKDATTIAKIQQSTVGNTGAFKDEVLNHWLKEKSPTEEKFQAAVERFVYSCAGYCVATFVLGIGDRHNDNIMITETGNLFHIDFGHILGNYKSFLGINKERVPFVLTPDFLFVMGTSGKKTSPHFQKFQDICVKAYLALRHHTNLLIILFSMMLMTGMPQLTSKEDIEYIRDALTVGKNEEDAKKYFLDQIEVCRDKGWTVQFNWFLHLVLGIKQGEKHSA

Human mTOR (FLAG-TOR) = Human mTOR (FLAG-TOR) (Homo sapiens, UniProt P42345); assay: mTOR kinase assay (DELFIA format, purified enzyme); assay type: biochemical; conditions: read-out: IC50 mTOR
Chain of Human mTOR (FLAG-TOR) (P42345 1360-2549 limits assumed): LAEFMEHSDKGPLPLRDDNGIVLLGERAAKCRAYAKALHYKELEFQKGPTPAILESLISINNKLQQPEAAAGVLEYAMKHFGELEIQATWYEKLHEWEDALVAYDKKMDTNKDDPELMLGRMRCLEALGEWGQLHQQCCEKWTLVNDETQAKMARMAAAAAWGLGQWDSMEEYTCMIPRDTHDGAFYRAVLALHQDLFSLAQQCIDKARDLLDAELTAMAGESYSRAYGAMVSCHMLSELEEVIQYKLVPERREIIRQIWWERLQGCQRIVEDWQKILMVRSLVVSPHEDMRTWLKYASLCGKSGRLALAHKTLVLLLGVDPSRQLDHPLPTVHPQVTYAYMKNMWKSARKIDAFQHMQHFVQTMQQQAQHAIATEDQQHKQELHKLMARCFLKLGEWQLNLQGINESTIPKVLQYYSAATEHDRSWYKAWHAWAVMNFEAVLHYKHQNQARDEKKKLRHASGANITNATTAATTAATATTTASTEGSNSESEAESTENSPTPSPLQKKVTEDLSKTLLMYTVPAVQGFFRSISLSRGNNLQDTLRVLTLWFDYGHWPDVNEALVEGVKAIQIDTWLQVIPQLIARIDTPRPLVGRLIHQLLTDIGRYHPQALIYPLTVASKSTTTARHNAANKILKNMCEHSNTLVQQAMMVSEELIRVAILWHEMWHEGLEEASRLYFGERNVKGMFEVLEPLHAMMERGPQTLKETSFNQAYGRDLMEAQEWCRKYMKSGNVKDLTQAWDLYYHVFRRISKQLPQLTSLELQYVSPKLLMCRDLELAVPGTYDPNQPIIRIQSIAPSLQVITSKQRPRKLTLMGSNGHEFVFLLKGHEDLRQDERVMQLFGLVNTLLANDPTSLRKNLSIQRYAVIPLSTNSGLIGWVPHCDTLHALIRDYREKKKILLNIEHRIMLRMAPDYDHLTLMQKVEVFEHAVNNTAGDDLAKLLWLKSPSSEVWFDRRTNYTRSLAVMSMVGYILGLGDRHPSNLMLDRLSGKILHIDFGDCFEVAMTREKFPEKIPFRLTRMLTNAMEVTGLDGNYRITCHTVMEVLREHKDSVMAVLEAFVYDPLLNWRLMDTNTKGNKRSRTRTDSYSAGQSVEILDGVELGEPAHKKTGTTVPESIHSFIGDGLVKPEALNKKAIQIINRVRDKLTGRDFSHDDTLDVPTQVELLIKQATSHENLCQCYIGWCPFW

[3] = Homo sapiens, PC3MM2, 72 h, PC3-mm2 cells, MTS, three days after drug treatment
[4] = Homo sapiens, 72 h, MTS cell growth assay, three days after drug treatment, MDA-MB-361 cells
[5] = Homo sapiens, PC3MM2, 72 h, MTS cell growth assay, three days after drug treatment, PC3-mm2 cells
[6] = MTS cell growth assay, three days after drug treatment, MDA-MB-361 cells
[7] = MTS cell growth assay, three days after drug treatment, PC3-mm2 cells
[8] = Homo sapiens, PC3MM2, 72 h, MTS cell growth assay, three days after drug treatment
[9] = MTS cell growth assay, three days after drug treatment

Row | IC50 (PI3K-α) | IC50 (PI3K-γ) | IC50 [2, 8] | IC50 (Human mTOR (FLAG-TOR)) | Compound | also measured
1 | – | – | – | – | O=C(Nc1ccncc1)Nc1ccc(-c2nc(N3CCOCC3)nc(N3CC4CCC3CO4)n2)cc1 (stereo not shown) [Example 807, 1-{4-[4-morpholin-4-yl-6-(2-oxa-5-azabicyclo[2.2.2]oct-5-yl)-1,3,5-triazin-2-yl]phenyl}-3-pyridin-4-ylurea] | IC50 ([1]; Homo sapiens, 72 h, MDA-MB-361 cells, MTS, three days after drug treatment): 35 nM; IC50 [2, 3]: 37 nM
2 | 0.9 nM | 15 nM | – | – | CN(C)CCNC(=O)c1ccc(NC(=O)Nc2ccc(-c3nc(N4CCCOCC4)nc(N4CCOCC4)n3)cc2)cc1 [Example 572, N-[2-(dimethylamino)ethyl]-4-[({4-[4-morpholin-4-yl-6-(1,4-oxazepan-4-yl)-1,3,5-triazin-2-yl]phenyl}carbamoyl)amino]benzamide] | IC50 [1, 4]: 13 nM; IC50 [2, 5]: 56 nM
3 | 0.6 nM | 8120 nM | 14 nM | 7 nM | O=C(Nc1ccc(C(=O)NCCN2CCCCC2)cc1)Nc1ccc(-c2nc(N3CCOCC3)nc(N3CCOCC3)n2)cc1 [Example 151, 4-({[4-(4,6-dimorpholin-4-yl-1,3,5-triazin-2-yl)phenyl]carbamoyl}amino)-N-(2-piperidin-1-ylethyl)benzamide] | –
4 | 2.9 nM | 32 nM | 77 nM | 7 nM | CC(C)Cc1nc(-c2ccc(NC(=O)Nc3ccc(C(=O)N4CCC(N(C)C)CC4)cc3)cc2)nc(N2CCOCC2)n1 [Example 323, 1-(4-{[4-(dimethylamino)piperidin-1-yl]carbonyl}phenyl)-3-{4-[4-(2-methylpropyl)-6-morpholin-4-yl-1,3,5-triazin-2-yl]phenyl}urea] | –
5 | 2 nM | – | 39.3 nM | 2.5 nM and 4.5 nM | CC(C)c1nc(-c2ccc(NC(=O)Nc3ccc(C(=O)N4CCN(C)CC4)cc3)cc2)nc(N2CCOCC2)n1 [Example 304, 1-{4-[4-(1-methylethyl)-6-morpholin-4-yl-1,3,5-triazin-2-yl]phenyl}-3-{4-[(4-methylpiperazin-1-yl)carbonyl]phenyl}urea] | IC50 (PI3K-α; listed as 486): 1.1 nM; IC50 [2, 5]: 39.3 nM
6 | 3 nM | 30 nM | 362 nM | 2.8 nM | CC(C)c1nc(-c2ccc(NC(=O)Nc3ccc(C(=O)NC4CN(C)C4)cc3)cc2)nc(N2CCOCC2)n1 [Example 307, N-(1-methylazetidin-3-yl)-4-[({4-[4-(1-methylethyl)-6-morpholin-4-yl-1,3,5-triazin-2-yl]phenyl}carbamoyl)amino]benzamide] | –
7 | – | – | – | – | COc1nc(-c2ccc(NC(=O)Nc3ccc(C(=O)N4CCN(C)CC4)cc3)cc2)nc(N2CCOCC2)n1 [Example 246, 1-[4-(4-methoxy-6-morpholin-4-yl-1,3,5-triazin-2-yl)phenyl]-3-{4-[(4-methylpiperazin-1-yl)carbonyl]phenyl}urea] | IC50 ([1]; Homo sapiens, MDA-MB-361, 72 h): 35 nM; IC50 ([2]; Homo sapiens, PC3MM2, 72 h): 91 nM
8 | 773 nM | 193 nM | 320 nM | 5.1 nM | O=C(Nc1ccncc1)Nc1ccc(-c2nc(N3CCCCC3)nc(N3CC4CCC(C3)O4)n2)cc1 [Example 79, 1-(4-(4-(8-oxa-3-azabicyclo[3.2.1]octan-3-yl)-6-(piperidin-1-yl)-1,3,5-triazin-2-yl)phenyl)-3-(pyridin-4-yl)urea] | –
9 | 3.4 nM | 18.5 nM | – | 1.06 nM | 1-(4-{[(3S)-3-(dimethylamino)pyrrolidin-1-yl]carbonyl}phenyl)-3-{4-[4-morpholin- [Example 517] | IC50 [2, 7]: 7 nM
10 | 2 nM | 33 nM | 43 nM | 2 nM | CCCCc1nc(-c2ccc(NC(=O)Nc3ccc(C(=O)N(C)CCN(C)C)cc3)cc2)nc(N2CCOCC2)n1 [Example 198, 4-({[4-(4-butyl-6-morpholin-4-yl-1,3,5-triazin-2-yl)phenyl]carbamoyl}amino)-N-[2-(dimethylamino)ethyl]-N-methylbenzamide] | –
11 | 6 nM | 140 nM | 144 nM | 80 nM | CCCCc1nc(-c2ccc(NC(=O)Nc3ccc(C(=O)Nc4ccc(OCCN(C)C)cc4)cc3)cc2)nc(N2CCOCC2)n1 [Example 269, 4-({[4-(4-butyl-6-morpholin-4-yl-1,3,5-triazin-2-yl)phenyl]carbamoyl}amino)-N-{4-[2-(dimethylamino)ethoxy]phenyl}benzamide] | –
12 | 0.4 nM | 10 nM | – | 1.09 nM | CN(C)CCN(C)C(=O)Nc1ccc(NC(=O)Nc2ccc(-c3nc(N4CCOCC4)nc(N4CCOCC4)n3)cc2)cc1 [Example 500, 1-[2-(dimethylamino)ethyl]-3-[4-({[4-(4,6-dimorpholin-4-yl-1,3,5-triazin-2-yl)phenyl]carbamoyl}amino)phenyl]-1-methylurea] | IC50 [1, 4]: 1 nM
13 | 2 nM | 21 nM | 65 nM | 6 nM | CCc1nc(-c2ccc(NC(=O)Nc3ccc(C(=O)Nc4ccc(N5CCN(C)CC5)cc4)cc3)cc2)nc(N2CCOCC2)n1 [Example 251, 4-({[4-(4-ethyl-6-morpholin-4-yl-1,3,5-triazin-2-yl)phenyl]carbamoyl}amino)-N-[4-(4-methylpiperazin-1-yl)phenyl]benzamide] | –
14 | 851 nM | 2120 nM | 320 nM | 7.15 nM | O=C(Nc1ccncc1)Nc1ccc(-c2nc(N3CCCC3)nc(N3CC4CCC(C3)O4)n2)cc1 [Example 80, 1-(4-(4-(8-oxa-3-azabicyclo[3.2.1]octan-3-yl)-6-(pyrrolidin-1-yl)-1,3,5-triazin-2-yl)phenyl)-3-(pyridin-4-yl)urea] | –

Row | Compound | IC50 (PI3K-α) | IC50 (PI3K-γ) | IC50 [2, 8] | IC50 (Human mTOR (FLAG-TOR)) | also measured
15 | COc1nc(-c2ccc(NC(=O)Nc3ccc(C(=O)NCCN4CCCCC4)cc3)cc2)nc(N2CCOCC2)n1 [Example 248, 4-({[4-(4-methoxy-6-morpholin-4-yl-1,3,5-triazin-2-yl)phenyl]carbamoyl}amino)-N-(2-piperidin-1-ylethyl)benzamide] | 2 nM | – | – | – | IC50 ([1]; Homo sapiens, MDA-MB-361, 72 h): < 31 nM; IC50 ([2]; Homo sapiens, PC3MM2, 72 h): 69 nM
16 | 1-(4-{[4-(1-methylethyl)piperazin-1-yl]carbonyl}phenyl)-3-[4-(4-morpholin-4-yl-6-piperidin-1-yl-1,3,5-triazin-2-yl)phenyl]urea [Example 595] | – | 58.5 nM | – | – | IC50 [1, 6]: 43 nM; IC50 [2, 7]: 193 nM
17 | CN1CCN(C(=O)c2ccc(NC(=O)Nc3ccc(-c4nc(N5CCOCC5)[nH]c(=O)n4)cc3)cc2)CC1 [Example 826, 1-{4-[(4-methylpiperazin-1-yl)carbonyl]phenyl}-3-[4-(6-morpholin-4-yl-4-oxo-4,5-dihydro-1,3,5-triazin-2-yl)phenyl]urea] | 15 nM | – | – | – | IC50 ([1]; Homo sapiens, MDA-MB-361, 72 h): > 1000 nM; IC50 [2, 3]: > 1000 nM
18 | 1-(4-(4,6-dimorpholino-1,3,5-triazin-2-yl)phenyl)-3-(4-(2-(pyridin-2-yl)acetyl)phenyl)urea [Example 78] | – | 23 nM | – | – | IC50 [1, 9]: 68 nM; IC50 [2, 9]: 31 nM
19 | O=C(Nc1ccc(C(=O)N2CCC(N3CCCCC3)CC2)cc1)Nc1ccc(-c2nc(N3CCOCC3)nc(N3C4CCC3COC4)n2)cc1 [Example 760, 1-[4-(1,4′-bipiperidin-1′-ylcarbonyl)phenyl]-3-{4-[4-morpholin-4-yl-6-(3-oxa-8-azabicyclo[3.2.1]oct-8-yl)-1,3,5-triazin-2-yl]phenyl}urea] | 4.3 nM | 28.3 nM | – | 0.21 nM | IC50 [2, 5]: 4 nM
20 | COc1nc(-c2ccc(NC(=O)Nc3ccc(C(=O)N4CCNC(C)(C)C4)cc3)cc2)nc(N2CCOCC2)n1 [Example 247, 1-{4-[(3,3-dimethylpiperazin-1-yl)carbonyl]phenyl}-3-[4-(4-methoxy-6-morpholin-4-yl-1,3,5-triazin-2-yl)phenyl]urea] | 2 nM | – | – | – | IC50 (PI3K-α; listed as 724): 1.5 nM; IC50 ([1]; Homo sapiens, MDA-MB-361, 72 h): 30 nM; IC50 ([2]; Homo sapiens, PC3MM2, 72 h): 111 nM
21 | 4-{[(4-{4-morpholin-4-yl-6-[(3S)-tetrahydrofuran-3-yloxy]-1,3,5-triazin-2-yl}phenyl)carbamoyl]amino}-N-(2-pyrrolidin-1-ylethyl)benzamide [Example 521] | 1.4 nM | – | – | – | IC50 [1, 6]: 8 nM; IC50 [2, 7]: 27 nM
22 | N-[2-(dimethylamino)ethyl]-4-({[4-(4-morpholin-4-yl-6-piperidin-1-yl-1,3,5-triazin-2-yl)phenyl]carbamoyl}amino)benzamide [Example 601] | 3.5 nM | 57.5 nM | – | 3 nM | IC50 [2, 7]: 155 nM
23 | CNCCN(C)C(=O)c1ccc(NC(=O)Nc2ccc(-c3nc(OC)nc(N4CCOCC4)n3)cc2)cc1 [Example 245, 4-({[4-(4-methoxy-6-morpholin-4-yl-1,3,5-triazin-2-yl)phenyl]carbamoyl}amino)-N-methyl-N-[2-(methylamino)ethyl]benzamide] | 1 nM | – | – | – | IC50 (PI3K-α; listed as 722): 0.8 nM; IC50 ([1]; Homo sapiens, MDA-MB-361, 72 h): 110 nM; IC50 ([2]; Homo sapiens, PC3MM2, 72 h): 374 nM
24 | 1-(4-{[4-(dimethylamino)piperidin-1-yl]carbonyl}phenyl)-3-[4-(4-morpholin-4-yl-6-phenyl-1,3,5-triazin-2-yl)phenyl]urea [Example 544] | 3.5 nM | 20.5 nM | – | 17 nM | IC50 [1, 6]: 58 nM

Reference: patent US20090304692A1, “TRIAZINE COMPOUNDS AS PI3 KINASE AND MTOR INHIBITORS” (Wyeth, priority 2008, published 2009)
